Test results published in ChEMBL document CHEMBL4814033, “Unique para-aminobenzenesulfonyl oxadiazoles as novel structural potential membrane active antibacterial agents towards drug-resistant methicillin resistant Staphylococcus aureus” (2021).
In brackets after ≈: the same amount, converted by molar mass.

Tests used:
Format in all cases: functional
Escherichia coli [1] = assay: Antibacterial activity against Escherichia coli ATCC 25922 by broth microdilution assay
Staphylococcus aureus [2] = assay: Antibacterial activity against Staphylococcus aureus by broth microdilution assay
Enterococcus faecalis = assay: Antibacterial activity against Enterococcus faecalis by broth microdilution assay
Staphylococcus aureus [3] = assay: Antibacterial activity against methicillin-resistant Staphylococcus aureus by broth microdilution assay
Staphylococcus aureus [4] = assay: Antibacterial activity against Staphylococcus aureus ATCC 25923 by broth microdilution assay
Escherichia coli [5] = assay: Antibacterial activity against Escherichia coli by broth microdilution assay
Pseudomonas aeruginosa [6] = assay: Antibacterial activity against Pseudomonas aeruginosa by broth microdilution assay
Staphylococcus aureus [7] = assay: Antibacterial activity against Staphylococcus aureus ATCC 29213 by broth microdilution assay
Klebsiella pneumoniae = assay: Antibacterial activity against Klebsiella pneumonia by broth microdilution assay
Pseudomonas aeruginosa [8] = assay: Antibacterial activity against Pseudomonas aeruginosa ATCC 27853 by broth microdilution assay
Acinetobacter baumannii = assay: Antibacterial activity against Acinetobacter baumannii by broth microdilution assay

| SMILES | MIC (Escherichia coli [1]) [µg/mL] | MIC (Staphylococcus aureus [2]) [µg/mL] | MIC (Enterococcus faecalis) [µg/mL] | MIC (Staphylococcus aureus [3]) [µg/mL] | MIC (Staphylococcus aureus [4]) [µg/mL] | MIC (Escherichia coli [5]) [µg/mL] | MIC (Pseudomonas aeruginosa [6]) [µg/mL] | MIC (Staphylococcus aureus [7]) [µg/mL] | MIC (Klebsiella pneumoniae) [µg/mL] | MIC (Pseudomonas aeruginosa [8]) [µg/mL] | MIC (Acinetobacter baumannii) [µg/mL] |
| --- | --- | --- | --- | --- | --- | --- | --- | --- | --- | --- | --- |
| CC(=O)Nc1ccc(S(=O)(=O)Cc2nnc(SCCO)o2)cc1 | 64 (≈ 179 µM) | 64 (≈ 179 µM) | 32 (≈ 89.5 µM) | 32 (≈ 89.5 µM) | 32 (≈ 89.5 µM) | 32 (≈ 89.5 µM) | 32 (≈ 89.5 µM) | 32 (≈ 89.5 µM) | 16 (≈ 44.8 µM) | 128 (≈ 358 µM) | 64 (≈ 179 µM) |
| C=CCSc1nnc(CS(=O)(=O)c2ccc(NC(C)=O)cc2)o1 | 256 (≈ 724 µM) | 256 (≈ 724 µM) | 64 (≈ 181 µM) | 256 (≈ 724 µM) | 256 (≈ 724 µM) | 256 (≈ 724 µM) | 256 (≈ 724 µM) | 256 (≈ 724 µM) | 256 (≈ 724 µM) | 256 (≈ 724 µM) | 256 (≈ 724 µM) |
| CCCCCCCCCCCCSc1nnc(CS(=O)(=O)c2ccc(NC(C)=O)cc2)o1 | 256 (≈ 531 µM) | 256 (≈ 531 µM) | 128 (≈ 266 µM) | 128 (≈ 266 µM) | 256 (≈ 531 µM) | 256 (≈ 531 µM) | 256 (≈ 531 µM) | 256 (≈ 531 µM) | 64 (≈ 133 µM) | 256 (≈ 531 µM) | 256 (≈ 531 µM) |
| CCCCSc1nnc(CS(=O)(=O)c2ccc(NC(C)=O)cc2)o1 | 256 (≈ 693 µM) | 128 (≈ 346 µM) | 256 (≈ 693 µM) | 256 (≈ 693 µM) | 256 (≈ 693 µM) | 128 (≈ 346 µM) | 256 (≈ 693 µM) | 256 (≈ 693 µM) | 256 (≈ 693 µM) | 256 (≈ 693 µM) | 256 (≈ 693 µM) |
| CCOC(=O)CSc1nnc(CS(=O)(=O)c2ccc(NC(C)=O)cc2)o1 | 128 (≈ 320 µM) | 128 (≈ 320 µM) | 128 (≈ 320 µM) | 16 (≈ 40.1 µM) | 64 (≈ 160 µM) | 32 (≈ 80.1 µM) | 64 (≈ 160 µM) | 64 (≈ 160 µM) | 64 (≈ 160 µM) | 128 (≈ 320 µM) | 32 (≈ 80.1 µM) |
| C#CCSc1nnc(CS(=O)(=O)c2ccc(NC(C)=O)cc2)o1 | 128 (≈ 364 µM) | 64 (≈ 182 µM) | 128 (≈ 364 µM) | 8 (≈ 22.8 µM) | 64 (≈ 182 µM) | 128 (≈ 364 µM) | 64 (≈ 182 µM) | 32 (≈ 91.1 µM) | 256 (≈ 728 µM) | 256 (≈ 728 µM) | 128 (≈ 364 µM) |
| CC(=O)Nc1ccc(S(=O)(=O)Cc2nnc(SCC#N)o2)cc1 | 256 (≈ 726 µM) | 128 (≈ 363 µM) | 256 (≈ 726 µM) | 256 (≈ 726 µM) | 256 (≈ 726 µM) | 256 (≈ 726 µM) | 256 (≈ 726 µM) | 256 (≈ 726 µM) | 256 (≈ 726 µM) | 256 (≈ 726 µM) | 128 (≈ 363 µM) |
| CC(=O)Nc1ccc(S(=O)(=O)Cc2nnc(SCc3ccc(F)cc3F)o2)cc1 | 128 (≈ 291 µM) | 64 (≈ 146 µM) | 128 (≈ 291 µM) | 16 (≈ 36.4 µM) | 64 (≈ 146 µM) | 8 (≈ 18.2 µM) | 64 (≈ 146 µM) | 32 (≈ 72.8 µM) | 128 (≈ 291 µM) | 64 (≈ 146 µM) | 64 (≈ 146 µM) |
